pIC50: −log10 of the molar value.
The compounds below were run against T1, ERK5 (Homo sapiens, UniProt Q13164) (assay: ERK5 IMAP assay (fluorescence polarisation)). Conditions: average (e.g. geometric mean) where more than one data point; read-out: ERK5 IC50.
T1 construct: made in house
Format: biochemical
Method: The assay buffer was prepared using 0.01% Tween®-20 5× stock, supplied as part of IMAP™ FP Progressive Binding System Kit (Molecular Devices R7436) and diluted to 1× using miliQ H2O. 1 μL of a 1M DTT stock was added for every 1 mL of 1× assay buffer to give a final concentration of 1 mM DTT.
ERK5 was expressed and purified at CRT-DL by Leon Pang and Sue Young. Aliquots were stored at −80° C. The ERK5 working solution was used at a […] final dilution in assay buffer. […] For 1 plate, […] of ERK5 stock was added to 2262 μL of 1× assay buffer.
To prepare the IMAP™ binding solution for one plate 20.5 μL of IMAP™ binding reagent stock, 1476 μL of 1× binding buffer A (60%), and 984 μL of binding buffer B (40%) (IMAP™ FP Progressive screening express kit (Molecular Devices R8127) was added to 9819.5 μL of milliQ H2O.
1 μL of inhibitor (in 60:40 H2O/DMSO) or 60:40 H2O/DMSO (for controls and blanks) were dry-spotted into the relevant wells of a 384-well assay plate using the MATRIX PlateMate® Plus. 5 μL of ERK5 working solution was added to test and control wells, and 5 μL of 1× assay buffer added to blanks; 4 μL of ATP/substrate working solution was added to all wells using a Matrix multichannel pipette. The plate was sealed using DMSO resistant clear seal and incubated for 2 h at 37° C. 1 μL of the kinase reaction mixture from the first plate was dry spotted into a second 384-well assay plate using the MATRIX PlateMate® Plus. 9 μL of assay buffer was added, followed by 30 μL of IMAP™ binding solution using a multichannel pipette. The plate was incubated at RT in darkness for 2 h. The assay plate was then read on an Analyst HT plate reader (Molecular Devices) using the settings described below: […]

T1 sequence (Q13164 whole entry): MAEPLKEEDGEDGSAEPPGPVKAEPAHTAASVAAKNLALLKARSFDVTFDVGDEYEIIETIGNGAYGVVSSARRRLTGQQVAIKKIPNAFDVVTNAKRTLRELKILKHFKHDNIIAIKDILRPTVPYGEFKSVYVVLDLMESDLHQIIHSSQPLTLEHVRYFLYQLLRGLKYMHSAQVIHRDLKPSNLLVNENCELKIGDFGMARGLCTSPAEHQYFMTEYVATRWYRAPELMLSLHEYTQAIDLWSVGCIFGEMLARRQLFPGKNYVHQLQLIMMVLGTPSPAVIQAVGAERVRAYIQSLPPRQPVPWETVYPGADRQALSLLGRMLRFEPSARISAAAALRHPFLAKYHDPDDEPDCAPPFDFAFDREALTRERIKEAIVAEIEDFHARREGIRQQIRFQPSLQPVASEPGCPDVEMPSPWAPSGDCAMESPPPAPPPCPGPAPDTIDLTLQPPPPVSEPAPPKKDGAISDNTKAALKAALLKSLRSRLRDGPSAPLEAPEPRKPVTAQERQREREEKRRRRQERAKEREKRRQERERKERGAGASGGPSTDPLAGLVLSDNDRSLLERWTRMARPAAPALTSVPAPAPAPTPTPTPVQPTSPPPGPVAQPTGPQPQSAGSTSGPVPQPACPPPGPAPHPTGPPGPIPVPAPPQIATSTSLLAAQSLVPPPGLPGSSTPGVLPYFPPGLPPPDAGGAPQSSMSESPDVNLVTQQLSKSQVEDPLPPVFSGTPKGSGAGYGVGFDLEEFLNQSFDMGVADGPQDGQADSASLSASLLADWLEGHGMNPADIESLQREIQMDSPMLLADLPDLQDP

| Compound | pIC50 |
| --- | --- |
| O=C(Nc1cccnc1N1CCCC1)c1cc(C(=O)c2c(Cl)ccc(Cl)c2F)c[nH]1 [Example 86, 4-(3,6-Dichloro-2-fluorobenzoyl)-N-(2-(pyrrolidin-1-yl)pyridin-3-yl)-1H-pyrrole-2-carboxamide] | 4.91 |
| O=C(Nc1cnc(N2CCOCC2)nc1)c1cc(C(=O)c2c(Cl)ccc(Cl)c2F)c[nH]1 [Example 20, 4-(3,6-Dichloro-2-fluorobenzoyl)-N-(2-morpholinopyrimidin-5-yl)-1H-pyrrole-2-carboxamide] | 5.82 |
| O=C(NC1CCNCC1)c1cc(C(=O)c2c(F)ccc(F)c2Cl)c[nH]1 [Example 215, 4-(2-Chloro-3,6-difluorobenzoyl)-N-(piperidin-4-yl)-1H-pyrrole-2-carboxamide] | 6.16 |
| O=C(Nc1ccncc1)c1cc(C(=O)c2cccc(Cl)c2Cl)c[nH]1 [Example 158, 4-(2,3-Dichlorobenzoyl)-N-(pyridin-4-yl)-1H-pyrrole-2-carboxamide] | 5.26 |
| Cc1ccc(F)c(C(=O)c2c[nH]c(C(=O)Nc3cncnc3)c2)c1Cl [Example 176, 4-(2-Chloro-6-fluoro-3-methylbenzoyl)-N-(pyrimidin-5-yl)-1H-pyrrole-2-carboxamide] | 5.93 |
| O=C(Nc1cccnc1)c1cc(C(=O)c2c(F)ccc(C(=O)O)c2F)c[nH]1 [Example 266, 2,4-difluoro-3-(5-(pyridin-3-ylcarbamoyl)-1H-pyrrole-3-carbonyl) benzoic Acid] | 5.71 |
| CC(C)(C)OC(=O)N1CCC(NC(=O)c2cc(C(=O)c3c(Cl)ccc(Cl)c3F)c[nH]2)CC1 [Example 2, tert-Butyl 4-(4-(3,6-dichloro-2-fluorobenzoyl)-1H-pyrrole-2-carboxamido)piperidine-1-carboxylate] | 5.87 |
| Cc1ccc(NC(=O)c2cc(C(=O)c3c(F)cccc3Cl)c[nH]2)cn1 [Example 150, 4-(2-Chloro-6-fluorobenzoyl)-N-(6-methylpyridin-3-yl)-1H-pyrrole-2-carboxamide] | 5.99 |
| Cc1cc(NC(=O)c2cc(C(=O)c3c(F)cccc3Br)c[nH]2)nc(C)n1 [Example 143, 4-(2-Bromo-6-fluorobenzoyl)-N-(2,6-dimethylpyrimidin-4-yl)-1H-pyrrole-2-carboxamide] | 5.31 |
| O=C(Nc1cccnc1)c1cc(C(=O)c2c(F)ccc(F)c2Cl)c[nH]1 [Example 214, 4-(2-Chloro-3,6-difluorobenzoyl)-N-(pyridin-3-yl)-1H-pyrrole-2-carboxamide] | 6.00 |
| O=C(Nc1cnc(N2CCC(O)CC2)nc1)c1cc(C(=O)c2c(F)cccc2Cl)c[nH]1 [Example 28, 4-(2-Chloro-6-fluorobenzoyl)-N-(2-(4-hydroxypiperidin-1-yl)pyrimidin-5-yl)-1H-pyrrole-2-carboxamide] | 5.65 |
| Cn1cc(NC(=O)c2cc(C(=O)c3c(Cl)ccc(O)c3F)c[nH]2)cn1 [Example 255, 4-(6-Chloro-2-fluoro-3-hydroxybenzoyl)-N-(1-methyl-1H-pyrazol-4-yl)-1H-pyrrole-2-carboxamide] | 6.13 |
| COc1ccc(Cl)c(C(=O)c2c[nH]c(C(=O)Nc3cnn(C4CCN(CC(F)(F)F)CC4)c3)c2)c1F [Example 64, 4-(6-Chloro-2-fluoro-3-methoxybenzoyl)-N-(1-(1-(2,2,2-trifluoroethyl)piperidin-4-yl)-1H-pyrazol-4-yl)-1H-pyrrole-2-carboxamide] | 5.52 |
| O=C(Nc1cnc(N2CCN(C3CC3)CC2)nc1)c1cc(C(=O)c2c(Cl)ccc(Cl)c2F)c[nH]1 [Example 17, N-(2-(4-cyclopropylpiperazin-1-yl)pyrimidin-5-yl)-4-(3,6-dichloro-2-fluorobenzoyl)-1H-pyrrole-2-carboxamide] | 5.76 |
| CN1CCC(NC(=O)c2cc(C(=O)c3cc(F)ccc3F)c[nH]2)CC1 [Example 227, 4-(2,5-Difluorobenzoyl)-N-(1-methylpiperidin-4-yl)-1H-pyrrole-2-carboxamide] | 5.21 |
| O=C(Nc1ccncn1)c1cc(C(=O)c2cccc(Cl)c2Cl)c[nH]1 [Example 131, 4-(2,3-Dichlorobenzoyl)-N-(pyrimidin-4-yl)-1H-pyrrole-2-carboxamide] | 5.58 |
| O=C(NC1CCOCC1)c1cc(C(=O)c2c(F)cccc2Cl)c[nH]1 [Example 194, 4-(2-Chloro-6-fluorobenzoyl)-N-(tetrahydro-2H-pyran-4-yl)-1H-pyrrole-2-carboxamide] | 6.07 |
| O=C(Nc1ccnc(Cl)c1)c1cc(C(=O)c2c(F)cccc2Cl)c[nH]1 [Example 34, 4-(2-Chloro-6-fluorobenzoyl)-N-(2-chloropyridin-4-yl)-1H-pyrrole-2-carboxamide] | 5.63 |
| CN1CCC(NC(=O)c2cc(C(=O)c3c(F)cccc3C3CC3)c[nH]2)CC1 [Example 204, 4-(2-Cyclopropyl-6-fluorobenzoyl)-N-(1-methylpiperidin-4-yl)-1H-pyrrole-2-carboxamide] | 5.08 |

These reach a higher pIC50. Values come first.

| pIC50 | Compound |
| --- | --- |
| 6.68 | CCN(CC)CCn1cc(NC(=O)c2cc(C(=O)c3c(Cl)ccc(Cl)c3F)c[nH]2)cn1 [Example 43, 4-(3,6-Dichloro-2-fluorobenzoyl)-N-(1-(2-(diethylamino)ethyl)-1H-pyrazol-4-yl)-1H-pyrrole-2-carboxamide] |
| 7.18 | CCn1cc(NC(=O)c2cc(C(=O)c3c(Cl)ccc(Cl)c3F)c[nH]2)cn1 [Example 46, 4-(3,6-Dichloro-2-fluorobenzoyl)-N-(1-ethyl-1H-pyrazol-4-yl)-1H-pyrrole-2-carboxamide] |
| 6.46 | O=C(Nc1cncnc1)c1cc(C(=O)c2c(F)ccc(Cl)c2Cl)c[nH]1 [Example 170, 4-(2,3-Dichloro-6-fluorobenzoyl)-N-(pyrimidin-5-yl)-1H-pyrrole-2-carboxamide] |
| 6.40 | Cc1cc(NC(=O)c2cc(C(=O)c3c(F)cccc3Cl)c[nH]2)ccn1 [Example 136, 4-(2-Chloro-6-fluorobenzoyl)-N-(2-methylpyridin-4-yl)-1H-pyrrole-2-carboxamide] |
| 6.69 | COc1ccc(Cl)c(C(=O)c2c[nH]c(C(=O)Nc3cncnc3)c2)c1F [Example 74, 4-(6-chloro-2-fluoro-3-methoxybenzoyl)-N-(pyrimidin-5-yl)-1H-pyrrole-2-carboxamide] |
| 6.18 | CC(C)N1CCC(NC(=O)c2cc(C(=O)c3c(F)cccc3Cl)c[nH]2)CC1 [Example 1, 4-(2-Chloro-6-fluorobenzoyl)-N-(1-isopropylpiperidin-4-yl)-1H-pyrrole-2-carboxamide] |
| 6.53 | CS(=O)(=O)N1CCC(NC(=O)c2cc(C(=O)c3c(F)cccc3Cl)c[nH]2)CC1 [Example 8, 4-(2-Chloro-6-fluorobenzoyl)-N-(1-(methylsulfonyl)piperidin-4-yl)-1H-pyrrole-2-carboxamide] |
| 6.27 | O=C(Nc1cnc(N2CCC(O)CC2)nc1)c1cc(C(=O)c2c(Cl)ccc(Cl)c2F)c[nH]1 [Example 29, 4-(3,6-Dichloro-2-fluorobenzoyl)-N-(2-(4-hydroxypiperidin-1-yl)pyrimidin-5-yl)-1H-pyrrole-2-carboxamide] |
| 7.75 | Cn1ccnc1Cn1cc(NC(=O)c2cc(C(=O)c3c(Cl)ccc(Cl)c3F)c[nH]2)cn1 [Example 51, 4-(3,6-Dichloro-2-fluorobenzoyl)-N-(1-((1-methyl-1H-imidazol-2-yl)methyl)-1H-pyrazol-4-yl)-1H-pyrrole-2-carboxamide] |
